Assay results from patent publication US20070027198A1, “Crystal of heterocyclic compound” (priority 2003, published 2007).

Tests used:
Format in all cases: physicochemical
[1] = Investigation of hygroscopicity (weight change and powder X-ray diffraction after storage in a desiccator); settings: for transformation of crystalline form (powder X-ray diffraction before and after storage): 25° C. in 93% RH for 14 days; for weight change caused by absorption of moisture: 93% RH at 25° C., stored up to 14 days
Method: The powder X-ray diffraction spectra were measured by means of a Rigaku Corporation's RAD-2B (target: Cu; Voltage: 40 kV; current: 20 mA; scanning speed: 4°/minute; measurement error: 2θ±0.2°).
Form I crystals and Form II crystals of Compound A, approximately 1 g each, were precisely weighed in weighing bottles, which were then kept in a desiccator of 93% RH at 25° C. […] In addition, the powder X-ray diffraction spectra were measured before and after preservation. The results are shown in FIG. 3 (weight change of Form I crystal), FIG. 4 (weight change of Form II crystal), FIG. 5 (powder X-ray diffraction spectrum of Form I crystal), and FIG. 6 (powder X-ray diffraction spectrum of Form II crystal).

[2] = Investigation of transformation mediated by solvents (suspension in toluene, crystalline form confirmed by DSC); settings: 50 mg suspended in 1 ml of toluene, stirred overnight
Method: The differential scanning calorimetry in Example 1 and Example 2 was made by means of a Perkin Elmer DSC7 (temperature-raising rate: 10° C./minute; the range of measurement: 50° C. (constant temperature 1 minute)→180° C.). The differential scanning calorimetry in Experimental Example 4 was made by means of Shimadzu Corporation's DSC-50 (temperature-raising rate: 2° C./minute; the range of measurement: room temperature→220° C.).
The influence of toluene (solvent) on the crystalline form of Compound A was investigated.
Form I crystals and Form II crystals of Compound A, 50 mg each, were weighed and respectively suspended in 1 ml of toluene, and stirred overnight. Thereafter, the crystals were separated by filtration and dried, of which the crystalline form was confirmed by a differential scanning calorimetry.

[3] = Investigation of thermodynamic stability by differential scanning calorimetry
Method: The differential scanning calorimetry in Experimental Example 5 was made by means of a Perkin Elmer DSC7 (for temperature-raising rate of 1° C./minute, the range of measurement: 130° C.→160° C.; and for temperature-raising rate of 2, 5, 7 or 10° C./minute, the range of measurement: 120° C.→170° C.).
The thermodynamic stability of the crystal of Compound A was investigated by differential scanning calorimetry.
The differential scanning calorimetry was carried out at a temperature-raising rate of 1, 2 or 5° C./minute for Form I crystal of Compound A and at 1, 5, 7 or 10° C./minute for Form II crystal. The results are shown in FIG. 7 (a chart of differential scanning calorimetry in Form I crystal), FIG. 8 and FIG. 9 (a chart of differential scanning calorimetry in Form II crystal).

Row | SMILES | transformation of crystalline form (powder X-ray diffraction before and after storage) [1] | weight change caused by absorption of moisture [1] | transformation of crystalline form in solvent ([2]; listed as form II crystal) | peak of Form I crystal in differential scanning calorimetry ([3]; lower temperature-raising rate: 7° C./minute, 5° C./minute, 1° C./minute) | peak of Form I crystal in differential scanning calorimetry ([3]; temperature-raising rate of 10° C./minute) | transformation of crystalline form (powder X-ray diffraction before and after storage) ([1]; listed as Form I crystals) | weight change caused by absorption of moisture ([1]; listed as Form I crystals) | transformation of crystalline form in solvent [2] | endothermic peaks in differential scanning calorimetry ([3]; temperature-raising rate of 1, 2 or 5° C./minute)
1 | Cc1ccc(-c2nc(CCCC[C@H]3CO[C@@](C)(C(=O)O)OC3)c(C)o2)cc1 [Form II crystal, 2-methyl-c-5-[4-[5-methyl-2-(4-methylphenyl)-1,3-oxazol-4-yl]butyl]-1,3-dioxane-r-2-carboxylic acid] | no transformation of crystalline form | no change of weight | no transformation of crystalline form occurs | a peak resulting from Form I crystal was recognized | no peak of Form I crystal was confirmed | – | – | – | –
2 | Cc1ccc(-c2nc(CCCC[C@H]3CO[C@@](C)(C(=O)O)OC3)c(C)o2)cc1 [Form I crystal, 2-methyl-c-5-[4-[5-methyl-2-(4-methylphenyl)-1,3-oxazol-4-yl]butyl]-1,3-dioxane-r-2-carboxylic acid] | – | – | – | – | – | transformation of crystalline form (from Form I to Form II) was recognized | 2.3% | transformed into Form II crystal | only one endothermic peak
